Laboratory results from patent US9241941B2, “Methods for treatment of lymphomas with mutations in cell cycle genes” (priority 2012, dated 2016).

Key:
[1] = tested on: cell lines that carry the translocation t(14;18) (DoHH2, Su-DHL-6, Su-DHL-16, Ly8); experiment: Viability / apoptosis of human lymphoma lines after in vitro treatment; type: cell-based; conditions: for induction of apoptosis / cell death in vitro, single agent: FL-derived cell lines, 1 μM; for selectivity for cell lines carrying translocation t(14;18): panel of human lymphoma lines, viability after 24 h
Description: Cell culture, cell cycle and viability assays. Lymphoma cell lines DoHH2, Ly-8, Su-DHL-6, Su-DHL-16, Su-DHL-8 and Su-DHL-10 were maintained in RPMI 1640 with 10% fetal bovine serum, 1% L-Glutamine and 1% penicillin/streptomycin. […] Briefly, cells were seed at 5×10^5 per mL and they were treated with PD-0332991 and/or ABT-737 and/or Obatoclax. After 24 h of treatment cell viability was assessed using CellTiter-Glo reagent (Promega).

xenografted DoHH2 tumors = experiment: DoHH2 xenograft treatment study; type: in vivo, NOD/SCID mice; conditions: for course of tumors after the treatment course / durability of response / tumor growth during the treatment course: PD 150 mg/kg p.o., ABT 50 mg/kg i.v., alternate days, days 1-14
Description: Xenografts and treatment studies. Xenograft mice were generated as described (Schatz et al., J Exp Med 208:1799-1807 (2011)); briefly, s.c. injection of 5 Mio DoHH2 or SU-DHL-8 human lymphoma cells mixed with matrigel (BD Bioscience, 354230) into the flanks of NOD/SCID (NOD.CB17-Prkdc^scid/J) mice. […] The control animals were treated with 50 mmol/L sodium lactate (pH4), PTD solution and 5% of Dextrose in water solution respectively. Tumors were weighed and volumes were measured twice weekly.
The translocation t(14;18) is the cytogenetic hallmark of FL and promotes lymphoma cell survival by activating the anti-apoptotic BCL2 protein. BH3 mimetic drugs like ABT-737 block BCL2 function by inserting into the BH3-binding groove of anti-apoptotic BCL2 proteins (Oltersdorf et al., Nature 435:677-681 (2005)).

vavBcl2/c-MYC lymphomas = experiment: Treatment of primary murine vavBcl2/c-MYC lymphomas in vivo
Description: Generation of mice. The vavP Bcl2 mouse model of FL (Lowe et al., Nature 432:307-315 (2004)) was adapted to adoptive transfer of retrovirally transduced HPCs^1. Data were analyzed in Kaplan-Meier format using the log-rank (Mantel-Cox) test for statistical significance. H&E, Ki67, TUNEL, P-RB, and surface marker analysis were as in (Staudt, N Engl J Med 356:741-742 (2007)).
Most FL cell lines are derived from transformed FLs and are carry the hallmark translocation t(14;18). These include DoHH2, Su-DHL-6, Su-DHL-16 and Ly 8 cells. These lines also have high levels of CDK4, CDK6, and phosphorylated RB (S780 and S795) (FIG. 10A) and DoHH2 cells carry a homozygous p16 deletion (Gronbaek et al., Leukemia 14:1727-1735 (2000)). To examine the effect of targeted therapies, the inventors first treated DoHH2, Su-DHL6, Su-DHL-16, and Ly8 cells with increasing doses of PD-0332991. […] Further, knockdown of either CDK4 or CDK6 alone was not sufficient for cell cycle arrest indicating functional compensation between these homologous RB kinases and the requirement to block both (FIG. 10I/J). Given the limitations of transformed FL-derived lines, the inventors also tested PD-0332991 against primary murine vavBcl2 induced lymphomas in vivo.

[2] = tested on: DoHH2, Su-DHL6, Su-DHL-16, and Ly8 cells; experiment: Cell cycle assay in human lymphoma cell lines; type: cell-based
Description: Cell culture, cell cycle and viability assays. Lymphoma cell lines DoHH2, Ly-8, Su-DHL-6, Su-DHL-16, Su-DHL-8 and Su-DHL-10 were maintained in RPMI 1640 with 10% fetal bovine serum, 1% L-Glutamine and 1% penicillin/streptomycin. Human lymphoma cell lines treated with PD-0332991 and Obatoclax were analyzed for cell viability and cell cycle assays. Briefly, cells were seed at 5×10^5 per mL and they were treated with PD-0332991 and/or ABT-737 and/or Obatoclax. After 24 h of treatment cell viability was assessed using CellTiter-Glo reagent (Promega). Cell cycle assay based on uptake of DNA staining dye using Cell Cycle Reagent assays (cat. 4700-0169 from Guava Technologies, Millipore) was performed following to manufacturer instructions.

vavBcl2/CDK4 lymphoma = experiment: Treatment of primary murine vavBcl2/CDK4 lymphomas in vivo; conditions: lymphocyte counts
[3] = tested on: RB phosphorylation (Ser 780); experiment: Immunoblot for RB phosphorylation in treated lymphoma cells; type: cell-based, human; conditions: DoHH2, Su-DHL6, Su-DHL-16, Ly8 cells treated with PD-0332991
Description: Western blot analysis. Immunoblots were performed from whole cell lysates or tissue samples as described (Steidl et al., Nature 471:377-381 (2011)). Briefly, 30 μg of protein/sample were resolved on SDS-PAGE gels and transferred to Immobilon-P-membranes (Millipore). Antibodies were against Rb (Cell Signaling cat #9309), Phospho-Rb S780 (Cell Signaling cat #3590), Phospho-Rb S795 (Cell Signaling cat #7986), CDK4 (Cell Signaling cat #2906), CyclinD3 (Cell Signaling cat #2936), Cyclin D1 (Cell Signaling cat #2926), Cyclin D2 (Cell Signaling cat #2924) p16 (Santa Cruz Biotechnology cat # sc 1207), Caspase 3 (Cell Signaling cat #9662) Tubulin (1:5000; Sigma, B-5-1-2). Enhanced chemiluminescence was used for detection (ECL, Amersham).

Row | Compound | induction of apoptosis / cell death in vitro, single agent [1] | selectivity for cell lines carrying translocation t(14;18) [1] | course of tumors after the treatment course / durability of response (xenografted DoHH2 tumors) | tumor growth during the treatment course (xenografted DoHH2 tumors) | cell death in tumors in vivo (caspase cleavage, TUNEL) (xenografted DoHH2 tumors; tumors at end of treatment) | response of lymphoma bearing animals (vavBcl2/c-MYC lymphomas; histologically transformed vavBcl2/c-MYC lymphomas) | time by which all animals succumbed to disease (vavBcl2/c-MYC lymphomas; vav-Bcl2/Myc tumor bearing animals treated with PD-0332991) [days] | cell cycle arrest after RB knockdown ([2]; DoHH2 cells expressing RB shRNA, PD-0332991 1 μM) | growth and cell cycle profile ([2]; increasing doses of PD-0332991, 24 h, all four lines) | response of lymphoma bearing animals (vavBcl2/CDK4 lymphoma) | RB phosphorylation in cells [3] | RB phosphorylation (Ser 780) in tumors in vivo (xenografted DoHH2 tumors; immunoblot on lysates of treated tumors) | proliferation by Ki67 in tumors in vivo (xenografted DoHH2 tumors; immunohistochemistry at end of treatment)
1 | CN(C)CC[C@H](CSc1ccccc1)Nc1ccc(S(=O)(=O)NC(=O)c2ccc(N3CCN(Cc4ccccc4-c4ccc(Cl)cc4)CC3)cc2)cc1[N+](=O)[O-] [ABT-737] | powerfully induced apoptosis and caspase cleavage | selective activity against cell lines that carry the translocation t(14;18) | residual tumors rapidly expanded thereafter | somewhat restrained tumor growth | significant cell death | – | – | – | – | – | – | – | –
2 | COC1=CC(c2cc3ccccc3[nH]2)=N/C1=C\c1[nH]c(C)cc1C [Obatoclax] | potently induced cell death | less selective for cells carrying the translocation t(14;18) | – | – | – | – | – | – | – | – | – | – | –
3 | CC(=O)c1c(C)c2cnc(Nc3ccc(N4CCNCC4)cn3)nc2n(C2CCCC2)c1=O [PD-0332991] | – | – | residual tumors rapidly expanded thereafter | somewhat restrained tumor growth | – | ineffective | ≤ 10 | knockdown of RB bypassed the cell cycle arrest | complete growth arrest and accumulation in the G1 phase | induced responses | loss of RB phosphorylation | complete loss of RB phosphorylation (Ser 780) | slowed proliferation by Ki67
